Results reported in article PMC3789652 (Journal of pharmaceutical sciences, 2011).

Tests used:
[1] = n-octanol / sodium phosphate buffer; assay type: physicochemical; settings: n-octanol/sodium phosphate buffer pH 7.4, 0.15 M, room temperature; mean ± SD, n = 6
[2] = test system: plasma proteins; test: plasma free fraction by ultrafiltration, human plasma; assay type: in vitro ADME; settings: mean ± SD, n = 3; for mlogDpr/pl Human: log10[(1−fp)/fp]; for fP Human: ultrafiltration, room temperature
[3] = test system: plasma proteins; test: plasma free fraction by ultrafiltration, monkey plasma; assay type: in vitro ADME, rhesus monkeys (Macaca mulatta); settings: mean ± SD, n = 3; for fP Monkey: arterial monkey plasma, ultrafiltration, room temperature; for mlogDpr/pl Monkey: log10[(1−fp)/fp], monkey plasma

COc1ccccc1N1CCN(CCCCn2ncc(=O)n(C)c2=O)CC1 [Radiotracer 1, [O-methyl-^11C]2-(4-(4-(2-methoxyphenyl)piperazin-1-yl)butyl)-4-methyl-1,2,4-triazine-3,5(2H,4H)dione]
mlogD [1]: 1.13 ± 0.02 | mlogDpr/pl Human [2]: 0.101 ± 0.006 | fP Monkey [3]: 0.594 ± 0.016 | mlogDpr/pl Monkey [3]: −0.165 ± 0.029

N#Cc1cc(F)cc(C#Cc2csc(CF)n2)c1 [Radiotracer 4, 3-fluoro-5-(2-(2-(fluoromethyl)thiazol-4-yl)ethynyl)benzonitrile]
mlogD [1]: 2.18 ± 0.22 | mlogDpr/pl Human [2]: 1.25 ± 0.13 | fP Human [2]: 0.0550 ± 0.0165

CN([11CH3])C(=O)C(CCN1CCC(O)(c2ccc(Cl)cc2)CC1)(c1ccccc1)c1ccccc1 [Radiotracer 7, [N-methyl-^11C]N-desmethyl-loperamide]
fP Human [2]: 0.123 ± 0.015

[2H]C([18F])Oc1cccc([C@H]2C[C@@H](N[C@H](C)c3ccccc3)C(=O)N2c2ccc(C(F)(F)F)cc2)c1 (stereo partly shown) [Radiotracer 18]
mlogD [1]: 4.24 ± 0.08 | mlogDpr/pl Human [2]: 2.31 ± 0.14 | fP Human [2]: 0.0050 ± 0.0017 | fP Monkey [3]: 0.0041 ± 0.0001 | mlogDpr/pl Monkey [3]: 2.39 ± 0.01
